From patent US12404285B2, “KRAS G12D proteolysis targeting chimeras” (PAQ Therapeutics Inc., priority 2022, dated 2025) come the findings set out here.

The target of the experiment is T1, KRAS (G12D)-HiBit in AsPc-1-KRAS (G12D)-HiBit-KI cell (Homo sapiens, UniProt P01116, G12D).
T1 construct: host or cells: AsPc-1-KRAS (G12D)-HiBit-KI cells (knock-in line)
T1 sequence (P01116 1-188 isoform P01116-2 G12D): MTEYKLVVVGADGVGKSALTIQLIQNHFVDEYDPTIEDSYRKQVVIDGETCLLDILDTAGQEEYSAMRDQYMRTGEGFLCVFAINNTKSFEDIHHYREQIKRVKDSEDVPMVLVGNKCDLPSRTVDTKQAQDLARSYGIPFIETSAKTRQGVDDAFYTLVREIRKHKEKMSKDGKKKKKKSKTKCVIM
The experiment is described as follows: G12D HiBit assay. Particulars: 24 hours compound treatment, absolute DC50, read-out: Average PHA DC50. In kind it is cell-based. The protocol: Day 1. Prepared the culture medium for AsPc-1-KRAS (G12D)-HiBit-KI cell (Pharmaron) using RPMI 1640 medium (Gibco, 11875093) with 10% FBS (Gibco, 10099141C) and 1% Penicillin-Streptomycin Liquid (Solarbio, P1400). Cultivated cells in T-75 flasks in a cell culture incubator (Thermo, Model: 371) at 37° C., 5% CO2. Allowed cells to reach approximately 80% confluence before splitting. Rinsed cultivated cells in T-75 flasks with 5 mL PBS (Solarbio, P1020-500). Aspirated off PBS, added 1.5 mL trypsin (Invitrogen, #25300), and incubated at 37° C. for approximately 5 minutes or until the cells detached. Inactivated trypsin by adding excessive serum containing medium. Harvested the cells from flask into cell culture medium and counted the cell number. Seeded AsPc-1-KRAS (G12D)-HiBit-KI cell into 384-well plate (Corning, 3570) (cell density: 5×10^3 cells/well in 50 μL medium) in RPMI 1640 medium and incubated overnight at 37° C. and 5% CO2.
Day 2. Test compounds were dissolved at 0.3 mM in DMSO (Solarbio, D8371) as stock solution. Transferred 45 μL of stock solution to a 384-well plate (Labcyte, 001-14555). Performed 3-fold, 10-points dilution via transferring 15 μL compound into 30 μL DMSO by using TECAN liquid handler (TECAN, Freedom EVO200). The compound plates were spin at room temperature at 1,000 RPM for 1 minute (Eppendorf, 5810R). Transferred 50 nL of diluted compounds from compound source plate into the cell plate by Echo (Labcyte, 550) to achieve final concentrations of 300 nM, 100 nM, 33.3 nM, 11.1 nM, 3.7 nM, 1.23 nM, 0.41 nM, 0.14 nM, 0.046 nM and 0.015 nM, then mixed the cell plate on a plate shaker (Yoning, WZ-4) for 15 seconds at 900 rpm. After compound treatment for 24 hours, removed the plate from incubators and equilibrated at room temperature for 15 minutes. Prepared the HiBit reagent (Promega, N3040) by mixing 10 mL of Nano-Glo®-HiBiT Lytic Buffer with 200 μL of Nano-Glo®-HiBiT Lytic Substrate and 100 μL of LgBiT Protein. Added 20 μL of HiBit reagent into each well of the cell plate and spun the plates at room temperature at 1,000 RPM for 1 minute. Then shook the plates at 600 RPM at room temperature for 20 minutes using a plate shaker (Yoning, WZ-4), and read the luminescence by EnVision (PerkinElmer, 2105-0020).
The inhibition activity was calculated using the following formula: HiBit-G12D level (%)=100%×[Luminescence(Sample)/Mean of Luminescence (HC)] where HC (high control) is obtained from cells treated with 0.1% DMSO only.
Absolute DC50 was calculated by fitting the curve using GraphPad Prism v8.0.2 (analyis 263): Y=Bottom+(100−Bottom)/(1+10^(Log AbsoluteIC50−X)*HillSlope+log((100−Bottom)/(50−Bottom)−1)))
The data are reported in Table 3, wherein “+++”=DC50 less than 100 nM, “++”=DC50 greater than or equal to 100 nM and less than 300 nM; “+”=DC50 greater than or equal to 300 nM.
Background: HiBiT is a short tag that completes a luciferase, so light tracks the accessible tagged protein.
Take `C#Cc1c(F)ccc2cccc(-c3ncc4c(N5CC6CCC(C5)N6)nc(OC[C@@]56CCCN5[C@H](COC(=O)N5CCC(COC7CCN(Cc8ccc9c(c8)n(C)c(=O)n9C8CCC(=O)NC8=O)CC7)CC5)CC6)nc4c3F)c12` (stereo partly drawn) [Compound 68]: the DC50 was under 100 nM. Regarding `C#Cc1c(F)ccc2cccc(-c3ncc4c(N5CC6CCC(C5)N6)nc(OC[C@@]56CCCN5[C@H](COC(=O)N5CCC(CCC7CCN(Cc8ccc9c(c8)n(C)c(=O)n9C8CCC(=O)NC8=O)CC7)CC5)CC6)nc4c3F)c12` (stereo partly drawn) [Compound 69], the DC50 was under 100 nM. With `C#Cc1c(F)ccc2cccc(-c3ncc4c(N5CC6CCC(C5)N6)nc(OC[C@@]56CCCN5[C@H](COC(=O)N5CCC(C7CCN(c8ccc9c(c8)n(C)c(=O)n9C8CCC(=O)NC8=O)CC7)CC5)CC6)nc4c3F)c12` (stereo partly drawn) [Compound 70] the figure was at least 300 nM; with `C#Cc1c(F)ccc2cccc(-c3ncc4c(N5CC6CCC(C5)N6)nc(OC[C@@]56CCCN5[C@H](COC(=O)N5CCC(OCC7CCN(Cc8ccc9c(c8)n(C)c(=O)n9C8CCC(=O)NC8=O)CC7)CC5)CC6)nc4c3F)c12` (stereo partly drawn) [Compound 71], under 100 nM; with `C#Cc1c(F)ccc2cccc(-c3ncc4c(N5CC6CCC(C5)N6)nc(OC[C@@]56CCCN5[C@H](COC(=O)N5CCN(C7CCN(Cc8ccc9c(c8)n(C)c(=O)n9C8CCC(=O)NC8=O)CC7)CC5)CC6)nc4c3F)c12` (stereo partly drawn) [Compound 72], 100 to 300 nM. On to `C#Cc1c(F)ccc2cccc(-c3ncc4c(N5CC6CCC(C5)N6)nc(OC[C@@]56CCCN5[C@H](COC(=O)N5CCC(COC7CN(Cc8ccc9c(c8)n(C)c(=O)n9C8CCC(=O)NC8=O)C7)CC5)CC6)nc4c3F)c12` (stereo partly drawn) [Compound 73], for which the DC50 is under 100 nM. Regarding `C#Cc1c(F)ccc2cccc(-c3ncc4c(N5CC6CCC(C5)N6)nc(OC[C@@]56CCCN5[C@H](COC(=O)N5CCC(OC7CN(Cc8ccc9c(c8)n(C)c(=O)n9C8CCC(=O)NC8=O)C7)CC5)CC6)nc4c3F)c12` (stereo partly drawn) [Compound 74], the DC50 was under 100 nM. For `C#Cc1c(F)ccc2cccc(-c3ncc4c(N5CC6CCC(C5)N6)nc(OC[C@@]56CCCN5[C@H](COC(=O)N5CCC(N7CCC(Cc8ccc9c(c8)n(C)c(=O)n9C8CCC(=O)NC8=O)CC7)CC5)CC6)nc4c3F)c12` (stereo partly drawn) [Compound 75], the DC50 was 100 to 300 nM. With `C#Cc1c(F)ccc2cccc(-c3ncc4c(N5CC6CCC(C5)N6)nc(OC[C@]56CCCN5[C@@H](COC(=O)N5CCC(CN7CCC(c8ccc9c(c8)n(C)c(=O)n9C8CCC(=O)NC8=O)CC7)CC5)CC6)nc4c3F)c12` (stereo partly drawn) [Compound 76] the figure was under 100 nM; with `C#Cc1c(F)ccc2cccc(-c3ncc4c(N5CC6CCC(C5)N6)nc(OC[C@]56CCCN5[C@@H](COC(=O)N5CCC(CC7CCN(Cc8cccc9c8n(C)c(=O)n9C8CCC(=O)NC8=O)CC7)CC5)CC6)nc4c3F)c12` (stereo partly drawn) [Compound 77], 100 to 300 nM; with `C#Cc1c(F)ccc2cccc(-c3ncc4c(N5CC6CCC(C5)N6)nc(OC[C@@]56CCCN5[C@H](COC(=O)N5CC(CN7CCC(Oc8cccc9c8n(C)c(=O)n9C8CCC(=O)NC8=O)CC7)C5)CC6)nc4c3F)c12` (stereo partly drawn) [Compound 78], under 100 nM. For `C#Cc1c(F)ccc2cccc(-c3ncc4c(N5CC6CCC(C5)N6)nc(OC[C@@]56CCCN5[C@H](COC(=O)N5CCC(CN7CCC(c8cccc9c8n(C)c(=O)n9C8CCC(=O)N(C)C8=O)CC7)CC5)CC6)nc4c3F)c12` (stereo partly drawn) [Compound 79], the DC50 was at least 300 nM. As to `C#Cc1c(F)ccc2cccc(-c3ncc4c(N5CC6CCC(C5)N6)nc(OC[C@@]56CCCN5[C@H](COC(=O)N5CC[C@H](CN7CCC(c8ccc9c(c8)n(C)c(=O)n9C8CCC(=O)NC8=O)CC7)C5)CC6)nc4c3F)c12` (stereo partly drawn) [Compound 80], the DC50 is under 100 nM. As for `C#Cc1c(F)ccc2cccc(-c3ncc4c(N5CC6CCC(C5)N6)nc(OC[C@@]56CCCN5[C@H](COC(=O)N5CC[C@@H](CN7CCC(c8ccc9c(c8)n(C)c(=O)n9C8CCC(=O)NC8=O)CC7)C5)CC6)nc4c3F)c12` (stereo partly drawn) [Compound 81, [(3S,8S)-8-[[4-(3,8-Diazabicyclo[3.2.1]octan-3-yl)-7-(8-ethynyl-7-fluoro-1-naphthyl)-8-fluoro-pyrido[4,3-d]pyrimidin-2-yl]oxymethyl]-1,2,3,5,6,7-hexahydropyrrolizin-3-yl]methyl (3S)-3-[[4-[1-(2,6-dioxo-3-piperidyl)-3-methyl-2-oxo-benzimidazol-5-yl]-1-piperidyl]methyl]pyrrolidine-1-carboxylate], the DC50 is under 100 nM. With `C#Cc1c(F)ccc2cc(O)cc(-c3ncc4c(N5CC6CCC(C5)N6)nc(OC[C@@]56CCCN5[C@H](COC(=O)N5CCC(CN7CCC(c8ccc9c(c8)n(C)c(=O)n9C8CCC(=O)NC8=O)CC7)CC5)CC6)nc4c3F)c12` (stereo partly drawn) [Compound 82, [(3S,8S)-8-[[4-(3,8-Diazabicyclo[3.2.1]octan-3-yl)-7-(8-ethynyl-7-fluoro-3-hydroxy-1-naphthyl)-8-fluoro-pyrido[4,3-d]pyrimidin-2-yl]oxymethyl]-1,2,3,5,6,7-hexahydropyrrolizin-3-yl]methyl 4-[[4-[1-(2,6-dioxo-3-piperidyl)-3-methyl-2-oxo-benzimidazol-5-yl]-1-piperidyl]methyl] piperidine-1-carboxylate] the figure was under 100 nM; with `C#Cc1c(F)ccc2cccc(-c3ncc4c(N5CC6CCC(C5)N6)nc(OC[C@@]56CCCN5[C@H](COC(=O)N5CC(OC7CCN(Cc8cccc9c8n(C)c(=O)n9C8CCC(=O)NC8=O)CC7)C5)CC6)nc4c3F)c12` (stereo partly drawn) [Compound 83, [(3S,8S)-8-[[4-(3,8-Diazabicyclo[3.2.1]octan-3-yl)-7-(8-ethynyl-7-fluoro-1-naphthyl)-8-fluoro-pyrido[4,3-d]pyrimidin-2-yl]oxymethyl]-1,2,3,5,6,7-hexahydropyrrolizin-3-yl]methyl3-[[1-[[1-(2,6-dioxo-3-piperidyl)-3-methyl2-oxo-benzimidazol-4-yl]methyl]-4-piperidyl]oxy]azetidine-1-carboxylate], under 100 nM; with `C#Cc1c(F)ccc2cccc(-c3ncc4c(N5CC6CCC(C5)N6)nc(OC[C@@]56CCCN5[C@H](COC(=O)N5CCC(CCN7CCN(Cc8cccc9c8n(C)c(=O)n9C8CCC(=O)NC8=O)CC7)CC5)CC6)nc4c3F)c12` (stereo partly drawn) [Compound 84, [(3S,8S)-8-[[4-(3,8-Diazabicyclo[3.2.1]octan-3-yl)-7-(8-ethynyl-7-fluoro-1-naphthyl)-8-fluoro-pyrido[4,3-d]pyrimidin-2-yl]oxymethyl]-1,2,3,5,6,7-hexahydropyrrolizin-3-yl]methyl4-[2-[4-[[1-(2,6-dioxo-3-piperidyl)-3-methyl-2-oxo-benzimidazol-4-yl]methyl]piperazin-1-yl]ethyl]piperidine-1-carboxylate], under 100 nM.

On to `C#Cc1c(F)ccc2cccc(-c3ncc4c(N5CC6CCC(C5)N6)nc(OC[C@@]56CCCN5[C@H](COC(=O)N5CCN(CCC7CCN(Cc8cccc9c8n(C)c(=O)n9C8CCC(=O)NC8=O)CC7)CC5)CC6)nc4c3F)c12` (stereo partly drawn) [Compound 85, [(3S,8S)-8-[[4-(3,8-Diazabicyclo[3.2.1]octan-3-yl)-7-(8-ethynyl-7-fluoro-1-naphthyl)-8-fluoro-pyrido[4,3-d]pyrimidin-2-yl]oxymethyl]-1,2,3,5,6,7-hexahydropyrrolizin-3-yl]methyl4-[2-[1-[[1-(2,6-dioxo-3-piperidyl)-3-methyl-2-oxo-benzimidazol-4-yl]methyl]-4-piperidyl]ethyl]piperazine-1-carboxylate], for which the DC50 is under 100 nM.
